Experimental data as given in patent US8343963B2, “Sulfamoyl-phenyl-ureido compounds and their use as medicament” (4SC AG, priority 2009, dated 2013).

These compounds were tested on multiresistant Dd2 strain of Plasmodium falciparum (assay: Antiplasmodial activity against Dd2 strain of Plasmodium falciparum ([8-3H]hypoxanthine incorporation)). Settings: 66 h, P. falciparum Dd2, 48 h + 18 h with [8-3H]hypoxanthine, 50% parasite growth inhibition, read-out: Antiplasmodia activity (IC50 class).
Assay type: cell-based
Method: For the determination of the antiplasmodial activity of the compounds described above, the multiresistant Dd2 strain of Plasmodium falciparum was used. The incorporation of [8-^3H]hypoxanthine into the parasitic nucleic acids was measured. The plasmodia were incubated at 0.3% parasitaemia and an erythrocyte haematocrit of 2.5% in the presence of different concentrations of the compounds in a final volume of 200 μl. The medium employed was RPMI 1640 which contained 10% of heat-treated human serum and 3 mg/l of gentamycin. In the incubations, the concentrations of the compounds varied from 0.001 to 100 μM. After 48 h, each batch was treated with 50 μl of [8-^3H]hypoxanthine (1 mCi/ml) and incubated for a further 18 h. The cells were filtered off, washed and suspended in 20 μl of scintillation fluid. The radioactive hypoxanthine absorbed by the parasites was then quantified using a scintillation counter. The results were presented graphically and the IC50 value was determined using a fitting function. The value IC50, the ‘inhibition constant’, indicates the value in μMol/l at which 50% parasite growth inhibition occurs (R. E. Desjardins, et al., Antimicrobiol. Agent Chemother. 16, pp. 710-718, 1979; J. D. Chulay, et al., Exp. Parasitol. 55, pp. 138-146, 1983).
`N=C(c1cccc(NC(=O)Nc2ccc(S(N)(=O)=O)cc2)c1)N1CCC(O)CC1` [Compound 2, 4-(3-(3-((4-hydroxypiperidin-1-yl)(imino)methyl)phenyl)ureido)benzenesulfonamide] was tested, and the IC50 was ≥ 1000 nM. With `N=C(c1cccc(NC(=O)Nc2ccc(S(N)(=O)=O)cc2)c1)N1CCNCC1` [Compound 3, 4-(3-(3-(imino(piperazin-1-yl)methyl)phenyl)ureido)benzenesulfonamide] the IC50 was ≥ 1000 nM. Compound `CCCCN1CCN(C(=N)c2cccc(NC(=O)Nc3ccc(S(=O)(=O)c4ccc(Br)cc4)cc3)c2)CC1` [Compound 4, 1-(4-(4-bromophenylsulfonyl)phenyl)-3-(3-((4-butylpiperazin-1-yl)(imino)methyl)phenyl)urea] has an IC50 of 210 to 990 nM. `N=C(c1cccc(NC(=O)Nc2ccc(S(=O)(=O)c3ccc(Br)cc3)cc2)c1)N1CCC(O)CC1` [Compound 5, 1-(4-(4-bromophenylsulfonyl)phenyl)-3-(3-((4-hydroxypiperidin-1-yl)(imino)methyl)phenyl)urea] gave an IC50 of 20 to 200 nM. For `N=C(c1cccc(NC(=O)Nc2ccc(S(=O)(=O)c3ccc([N+](=O)[O-])cc3)cc2)c1)N1CCOCC1` [Compound 6, 1-(3-(imino(morpholino)methyl)phenyl)-3-(4-(4-nitrophenylsulfonyl)phenyl)urea], the IC50 was 20 to 200 nM. For `N=C(c1cccc(NC(=O)Nc2ccc(S(=O)(=O)c3ccc([N+](=O)[O-])cc3)cc2)c1)N1CCCC1` [Compound 7, 1-(3-(imino(pyrrolidin-1-yl)methyl)phenyl)-3-(4-(4-nitrophenylsulfonyl)phenyl)urea], the IC50 was 20 to 200 nM. For `CN1CCN(C(=N)c2cccc(NC(=O)Nc3ccc(S(=O)(=O)c4ccc([N+](=O)[O-])cc4)cc3)c2)CC1` [Compound 8, 1-(3-(imino(4-methylpiperazin-1-yl)methyl)phenyl)-3-(4-(4-nitrophenylsulfonyl)phenyl)urea], the IC50 was ≥ 1000 nM. `N=C(c1cccc(NC(=O)Nc2ccc(S(=O)(=O)c3ccc([N+](=O)[O-])cc3)cc2)c1)N1CCSC1` [Compound 9, 1-(3-(imino(thiazolidin-3-yl)methyl)phenyl)-3-(4-(4-nitrophenylsulfonyl)phenyl)urea] was tested, and the IC50 was ≥ 1000 nM. `N=C(c1cccc(NC(=O)Nc2ccc(S(=O)(=O)c3ccc([N+](=O)[O-])cc3)cc2)c1)N1CCC(O)CC1` [Compound 10, 1-(3-((4-hydroxypiperidin-1-yl)(imino)methyl)phenyl)-3-(4-(4-nitrophenylsulfonyl)phenyl)urea] gave an IC50 of 20 to 200 nM. `N=C(c1cccc(NC(=O)Nc2ccc(S(=O)(=O)c3ccc(Cl)cc3)cc2)c1)N1CCC(O)CC1` [Compound 11, 1-(4-(4-chlorophenylsulfonyl)phenyl)-3-(3-((4-hydroxypiperidin-1-yl)(imino)methyl)phenyl)urea] gave an IC50 of 20 to 200 nM. In the case of `N=C(c1cccc(NC(=O)Nc2ccc(S(=O)(=O)c3ccc(Br)cc3)cc2)c1)N1CCC(CO)CC1` [Compound 12, 1-(4-(4-bromophenylsulfonyl)phenyl)-3-(3-((4-(hydroxymethyl)piperidin-1-yl)(imino)methyl)phenyl)urea], the IC50 is reported as ≥ 1000 nM. `COCCN(CCOC)C(=N)c1cccc(NC(=O)Nc2ccc(S(=O)(=O)c3ccc(Br)cc3)cc2)c1` [Compound 13, 3-(3-(4-(4-bromophenylsulfonyl)phenyl)ureido)-N,N-bis(2-methoxyethyl)benzimidamide] was tested, and the IC50 was ≥ 1000 nM. `N=C(c1cccc(NC(=O)Nc2ccc(S(=O)(=O)c3ccc(Br)cc3)cc2)c1)N1CCSCC1` [Compound 14, 1-(4-(4-bromophenylsulfonyl)phenyl)-3-(3-(imino(thiomorpholino)methyl)phenyl)urea] showed an IC50 of 20 to 200 nM. Compound `N=C(c1cccc(NC(=O)Nc2ccc(S(=O)(=O)c3ccc(Br)cc3)cc2)c1)N1CCCC1` [Compound 15, 1-(4-(4-bromophenylsulfonyl)phenyl)-3-(3-(imino(pyrrolidin-1-yl)methyl)phenyl)urea] has an IC50 of 20 to 200 nM. `N=C(c1cccc(NC(=O)Nc2ccc(S(=O)(=O)c3ccc(Br)cc3)cc2)c1)N1CCC(C(N)=O)CC1` [Compound 16, 1-((3-(3-(4-(4-bromophenylsulfonyl)phenyl)ureido)phenyl)(imino)methyl)piperidine-4-carboxamide] gave an IC50 of 20 to 200 nM. With `N=C(c1cccc(NC(=O)Nc2ccc(S(=O)(=O)c3ccc(N)cc3)cc2)c1)N1CCC(O)CC1` [Compound 17, 1-(4-(4-aminophenylsulfonyl)phenyl)-3-(3-((4-hydroxypiperidin-1-yl)(imino)methyl)phenyl)urea] the IC50 was ≥ 1000 nM. With `CCCCN1CCN(C(=N)c2cccc(NC(=O)Nc3ccc(S(=O)(=O)NC)cc3)c2)CC1` [Compound 18, 4-(3-(3-((4-butylpiperazin-1-yl)(imino)methyl)phenyl)ureido)-N-methylbenzenesulfonamide] the IC50 was ≥ 1000 nM. `CCCCN1CCN(C(=N)c2cccc(NC(=O)Nc3ccc(S(=O)(=O)NCCC)cc3)c2)CC1` [Compound 19, 4-(3-(3-((4-butylpiperazin-1-yl)(imino)methyl)phenyl)ureido)-N-propylbenzenesulfonamide] was tested, and the IC50 was ≥ 1000 nM. For `CCCCN1CCN(C(=N)c2cccc(NC(=O)Nc3ccc(S(=O)(=O)N(CCO)CCO)cc3)c2)CC1` [Compound 20, 4-(3-(3-((4-butylpiperazin-1-yl)(imino)methyl)phenyl)ureido)-N,N-bis(2-hydroxyethyl)benzenesulfonamide], the IC50 was ≥ 1000 nM. `CCCCN1CCN(C(=N)c2cccc(NC(=O)Nc3ccc(S(=O)(=O)N4CCOCC4)cc3)c2)CC1` [Compound 21, 1-(3-((4-butylpiperazin-1-yl)(imino)methyl)phenyl)-3-(4-(morpholinosulfonyl)phenyl)urea] was tested, and the IC50 was ≥ 1000 nM. With `CCCCN1CCN(C(=N)c2cccc(NC(=O)Nc3ccc(S(=O)(=O)Nc4ccnc5cc(Cl)ccc45)cc3)c2)CC1` [Compound 22, 4-(3-(3-((4-butylpiperazin-1-yl)(imino)methyl)phenyl)ureido)-N-(7-chloroquinolin-4-yl)benzenesulfonamide] the IC50 was ≥ 1000 nM. For `COC(=O)N1CCN(C(=N)c2cccc(NC(=O)Nc3ccc(S(=O)(=O)Nc4ccc(S(N)(=O)=O)cc4)cc3)c2)CC1` [Compound 24, methyl 4-(imino(3-(3-(4-(N-(4-sulfamoylphenyl)sulfamoyl)phenyl)ureido)phenyl)methyl)piperazine-1-carboxylate], the IC50 was ≥ 1000 nM. For `N=C(c1cccc(NC(=O)Nc2ccc(S(=O)(=O)Nc3ccc(S(N)(=O)=O)cc3)cc2)c1)N1CCOCC1` [Compound 25, 4-(3-(3-(imino(morpholino)methyl)phenyl)ureido)-N-(4-sulfamoylphenyl)benzenesulfonamide], the IC50 was ≥ 1000 nM. `CN1CCN(C(=N)c2cccc(NC(=O)Nc3ccc(S(=O)(=O)Nc4ccc(S(N)(=O)=O)cc4)cc3)c2)CC1` [Compound 26, 4-(3-(3-(imino(4-methylpiperazin-1-yl)methyl)phenyl)ureido)-N-(4-sulfamoylphenyl)benzenesulfonamide] was tested, and the IC50 was ≥ 1000 nM. `N=C(c1cccc(NC(=O)Nc2ccc(S(=O)(=O)NCc3ccc(S(N)(=O)=O)cc3)cc2)c1)N1CCC(=O)CC1` [Compound 27, 4-(3-(3-(imino(4-oxopiperidin-1-yl)methyl)phenyl)ureido)-N-(4-sulfamoylbenzyl)benzenesulfonamide] gave an IC50 of 210 to 990 nM. Compound `N=C(c1cccc(NC(=O)Nc2ccc(S(=O)(=O)NCc3ccc(S(N)(=O)=O)cc3)cc2)c1)N1CCN(CCO)CC1` [Compound 28, 4-(3-(3-((4-(2-hydroxyethyl)piperazin-1-yl)(imino)methyl)phenyl)ureido)-N-(4-sulfamoylbenzyl)benzenesulfonamide] has an IC50 of 20 to 200 nM. Compound `N=C(c1cccc(NC(=O)Nc2ccc(S(=O)(=O)NCc3ccc(S(N)(=O)=O)cc3)cc2)c1)N1CCC(CO)CC1` [Compound 29, 4-(3-(3-((4-(hydroxymethyl)piperidin-1-yl)(imino)methyl)phenyl)ureido)-N-(4-sulfamoylbenzyl)benzenesulfonamide] has an IC50 of 210 to 990 nM. Work on `CCN(CCO)C(=N)c1cccc(NC(=O)Nc2ccc(S(=O)(=O)NCc3ccc(S(N)(=O)=O)cc3)cc2)c1` [Compound 30, N-ethyl-N-(2-hydroxyethyl)-3-(3-(4-(N-(4-sulfamoylbenzyl)sulfamoyl)phenyl)ureido)benzimidamide] yielded an IC50 of 210 to 990 nM. For `N=C(c1cccc(NC(=O)Nc2ccc(S(=O)(=O)NCc3ccc(S(N)(=O)=O)cc3)cc2)c1)N1CCSCC1` [Compound 31, 4-(3-(3-(imino(thiomorpholino)methyl)phenyl)ureido)-N-(4-sulfamoylbenzyl)benzenesulfonamide], the IC50 was 210 to 990 nM. Work on `COCCN(CCOC)C(=N)c1cccc(NC(=O)Nc2ccc(S(=O)(=O)NCc3ccc(S(N)(=O)=O)cc3)cc2)c1` [Compound 32, N,N-bis(2-methoxyethyl)-3-(3-(4-(N-(4-sulfamoylbenzyl)sulfamoyl)phenyl)ureido)benzimidamide] yielded an IC50 of 210 to 990 nM. In the case of `N=C(c1cccc(NC(=O)Nc2ccc(S(=O)(=O)NCc3ccc(S(N)(=O)=O)cc3)cc2)c1)N1CCC(C(N)=O)CC1` [Compound 33, 1-(imino(3-(3-(4-(N-(4-sulfamoylbenzyl)sulfamoyl)-phenyl)ureido)phenyl)methyl)piperidine-4-carboxamide], the IC50 is reported as 20 to 200 nM. Work on `CCCCN1CCN(C(=N)c2cccc(NC(=O)Nc3ccc(S(=O)(=O)NCc4c(F)ccc(F)c4F)cc3)c2)CC1` [Compound 35, 4-(3-(3-((4-butylpiperazin-1-yl)(imino)methyl)phenyl)ureido)-N-(2,3,6-trifluorobenzyl)benzenesulfonamide] yielded an IC50 of 210 to 990 nM.
